Assay results taken from patent US20100267561A1, “HERBICIDAL PYRIDAZINONE DERIVATIVES” (priority 2007, published 2010).

What was measured:
Test in all cases: Test B pre-/postemergence plant response
Assay type in all cases: in vivo
[1] = test system: surinam grass (Brachiaria decumbens); details: for Surinam Grass plant response rating: 8 g ai/ha
How it was run: (§1)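 Visual scoring from 0 (no effect) to 100 (complete control) against untreated controls was done 13 to 15 days after greenhouse treatment. Chemicals were formulated in a surfactant-containing non-phytotoxic solvent and applied to soil preemergence or to 1- to 4-leaf (2-18 cm) plants postemergence.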

kochia (Kochia scoparia) = details: for Kochia plant response rating: 8 g ai/ha
How it was run: as §1

[2] = test system: catchweed bedstraw (Galium aparine); details: Preemergence
How it was run: as §1

[3] = test system: cocklebur (Xanthium strumarium); details: for Cocklebur plant response rating: 8 g ai/ha
How it was run: as §1

[4] = test system: blackgrass (Alopecurus myosuroides); details: for Blackgrass plant response rating: 8 g ai/ha
How it was run: as §1

[5] = test system: Russian thistle (Salsola iberica); details: Preemergence
How it was run: as §1

[6] = test system: wheat (Triticum aestivum); details: for Wheat plant response rating: 8 g ai/ha
How it was run: as §1

[7] = test system: downy bromegrass (Bromus tectorum); details: for Bromegrass, Downy plant response rating: 8 g ai/ha
How it was run: as §1

[8] = test system: yellow nutsedge (Cyperus esculentus); details: for Nutsedge, Yellow plant response rating: 8 g ai/ha
How it was run: as §1

soybean (Glycine max) = details: for Soybean plant response rating: 8 g ai/ha
How it was run: as §1

corn (Zea mays) = details: for Corn plant response rating: 8 g ai/ha
How it was run: as §1

[9] = test system: bermudagrass (Cynodon dactylon); details: for Bermudagrass plant response rating: 8 g ai/ha
How it was run: as §1

[10] = test system: lambsquarters (Chenopodium album); details: for Lambsquarters plant response rating: 8 g ai/ha
How it was run: as §1

[11] = test system: morningglory (Ipomoea coccinea); details: for Morningglory plant response rating: 8 g ai/ha
How it was run: as §1

[12] = Postemergence, 16 g ai/ha, scale 0 to 100
[13] = Postemergence, 62 g ai/ha, scale 0 to 100, 0 no effect, 100 complete control
[14] = Preemergence, 16 g ai/ha, scale 0 to 100 (0 no effect, 100 complete control)
[15] = Preemergence, 31 g ai/ha, scale 0 to 100 (0 no effect, 100 complete control)
[16] = Preemergence, 62 g ai/ha, 0 to 100 scale, 0 no effect, 100 complete control
[17] = Postemergence, 31 g ai/ha, scale 0 to 100, 0 no effect, 100 complete control
[18] = Preemergence, 31 g ai/ha, 0 to 100 scale, 0 no effect, 100 complete control
[19] = Preemergence, 62 g ai/ha, scale 0 to 100
[20] = 16 g ai/ha, scale 0 to 100 (0 no effect, 100 complete control)

CCc1cc(-c2ccc(Cl)cc2)nn1-c1c(OC(=O)C(C)(C)C)cnn(C)c1=O [Compound 40]
Surinam Grass plant response rating ([1]; postemergence, 0-100 scale): 98
Plant response rating, Surinam Grass [1, 12]: 100
Plant response rating, Surinam Grass [1, 13]: 100
Plant response rating, Surinam Grass [1, 14]: 100
Plant response rating, Surinam Grass [1, 15]: 100
Plant response rating, Surinam Grass [1, 16]: 100
Surinam Grass plant response rating ([1]; Preemergence, scale 0 to 100): 80
Kochia plant response rating (kochia (Kochia scoparia); postemergence, 0-100 scale): 0
Plant response rating, Kochia (kochia (Kochia scoparia); [12]): 0
Plant response rating, Kochia (kochia (Kochia scoparia); [17]): 0
Plant response rating, Kochia (kochia (Kochia scoparia); [13]): 0
Plant response rating, Kochia (kochia (Kochia scoparia); [14]): 0
Plant response rating, Kochia (kochia (Kochia scoparia); [18]): 0
Plant response rating, Kochia (kochia (Kochia scoparia); [19]): 0
Kochia plant response rating (kochia (Kochia scoparia); Preemergence, scale 0 to 100): 0
Plant response rating, Galium [2, 20]: 0
Plant response rating, Galium ([2]; 31 g ai/ha, 0 to 100 scale, 0 no effect, 100 complete control): 0
Plant response rating, Galium ([2]; 62 g ai/ha, scale 0 to 100): 0
Galium plant response rating ([2]; 8 g ai/ha, scale 0 to 100): 0
Cocklebur plant response rating ([3]; postemergence, 0-100 scale): 0
Plant response rating, Cocklebur [3, 12]: 0
Plant response rating, Cocklebur [3, 17]: 0
Plant response rating, Cocklebur [3, 13]: 0
Plant response rating, Cocklebur [3, 14]: 0
Plant response rating, Cocklebur [3, 18]: 0
Plant response rating, Cocklebur [3, 19]: 0
Cocklebur plant response rating ([3]; Preemergence, scale 0 to 100): 0
Blackgrass plant response rating ([4]; postemergence, 0-100 scale): 85
Plant response rating, Blackgrass [4, 12]: 90
Plant response rating, Blackgrass [4, 17]: 90
Plant response rating, Blackgrass [4, 13]: 90
Plant response rating, Blackgrass [4, 14]: 95
Plant response rating, Blackgrass [4, 18]: 95
Plant response rating, Blackgrass [4, 19]: 95
Blackgrass plant response rating ([4]; Preemergence, scale 0 to 100): 95
Plant response rating, Russian Thistle [5, 20]: 0
Plant response rating, Russian Thistle ([5]; 31 g ai/ha, scale 0 to 100 (0 no effect, 100 complete control)): 0
Plant response rating, Russian Thistle ([5]; 62 g ai/ha, scale 0 to 100): 0
Russian Thistle plant response rating ([5]; 8 g ai/ha, scale 0 to 100): 0
Wheat plant response rating ([6]; postemergence, 0-100 scale): 70
Plant response rating, Wheat [6, 12]: 70
Plant response rating, Wheat [6, 13]: 100
Plant response rating, Wheat [6, 14]: 60
Plant response rating, Wheat [6, 15]: 60
Plant response rating, Wheat [6, 16]: 90
Wheat plant response rating ([6]; Preemergence, scale 0 to 100): 5
Bromegrass, Downy plant response rating ([7]; postemergence, 0-100 scale): 50
Plant response rating, Bromegrass, Downy [7, 12]: 60
Plant response rating, Bromegrass, Downy [7, 17]: 80
Plant response rating, Bromegrass, Downy [7, 13]: 100
Plant response rating, Bromegrass, Downy [7, 14]: 60
Plant response rating, Bromegrass, Downy [7, 18]: 80
Plant response rating, Bromegrass, Downy [7, 19]: 90
Bromegrass, Downy plant response rating ([7]; Preemergence, scale 0 to 100): 0
Nutsedge, Yellow plant response rating ([8]; postemergence, 0-100 scale): 0
Plant response rating, Nutsedge, Yellow [8, 12]: 0
Plant response rating, Nutsedge, Yellow [8, 17]: 0
Plant response rating, Nutsedge, Yellow [8, 13]: 0
Plant response rating, Nutsedge, Yellow [8, 14]: 0
Plant response rating, Nutsedge, Yellow [8, 15]: 0
Plant response rating, Nutsedge, Yellow [8, 19]: 0
Nutsedge, Yellow plant response rating ([8]; Preemergence, scale 0 to 100): 0
Soybean plant response rating (soybean (Glycine max); postemergence, 0-100 scale): 0
Plant response rating, Soybean (soybean (Glycine max); [12]): 0
Plant response rating, Soybean (soybean (Glycine max); [13]): 0
Plant response rating, Soybean (soybean (Glycine max); [14]): 0
Plant response rating, Soybean (soybean (Glycine max); [15]): 0
Plant response rating, Soybean (soybean (Glycine max); [19]): 0
Soybean plant response rating (soybean (Glycine max); Preemergence, scale 0 to 100): 0
Corn plant response rating (corn (Zea mays); postemergence, 0-100 scale): 0
Plant response rating, Corn (corn (Zea mays); [12]): 0
Plant response rating, Corn (corn (Zea mays); [17]): 100
Plant response rating, Corn (corn (Zea mays); [13]): 100
Plant response rating, Corn (corn (Zea mays); [14]): 75
Plant response rating, Corn (corn (Zea mays); [18]): 85
Plant response rating, Corn (corn (Zea mays); [19]): 95
Corn plant response rating (corn (Zea mays); Preemergence, scale 0 to 100): 55
Bermudagrass plant response rating ([9]; postemergence, 0-100 scale): 0
Plant response rating, Bermudagrass [9, 12]: 60
Plant response rating, Bermudagrass [9, 17]: 65
Plant response rating, Bermudagrass [9, 13]: 98
Bermudagrass plant response rating ([9]; Preemergence, scale 0 to 100 (0 no effect, 100 complete control)): 0
Plant response rating, Bermudagrass [9, 14]: 90
Plant response rating, Bermudagrass [9, 18]: 100
Plant response rating, Bermudagrass [9, 19]: 100
Lambsquarters plant response rating ([10]; postemergence, 0-100 scale): 0
Plant response rating, Lambsquarters [10, 12]: 0
Plant response rating, Lambsquarters [10, 17]: 0
Plant response rating, Lambsquarters [10, 13]: 0
Plant response rating, Lambsquarters [10, 14]: 0
Plant response rating, Lambsquarters [10, 18]: 0
Plant response rating, Lambsquarters [10, 19]: 0
Lambsquarters plant response rating ([10]; Preemergence, scale 0 to 100): 0
Morningglory plant response rating ([11]; postemergence, 0-100 scale): 0
Plant response rating, Morningglory [11, 12]: 0
Plant response rating, Morningglory [11, 17]: 0
Plant response rating, Morningglory [11, 13]: 0
Plant response rating, Morningglory [11, 14]: 0
Plant response rating, Morningglory [11, 15]: 0
Plant response rating, Morningglory [11, 19]: 0
Morningglory plant response rating ([11]; Preemergence, scale 0 to 100): 0
